The results in this text go back to ChEMBL document CHEMBL5512646, “Synthesis, kinase inhibition and anti-leukemic activities of diversely substituted indolopyrazolocarbazoles” (Eur J Med Chem, 2024).

SMILES strings stand for the structures. pEC50, pIC50: −log10 of the molar value. Where only a bound is given, the exact number is not on record here.

The term pEC50 denotes the negative decadic logarithm of the EC50, by convention in mol/L. In general, pIC50 refers to the IC50 on a negative log10 scale, so that one unit is a factor of ten.

Test [1] relates to MOLM-13. Briefly: Cytotoxicity against human MOLM-13 cells assessed as induction of cell death incubated for 24 hrs by WST-1 assay. Conditions: MOLM-13, 24 h. For orientation: Tetrazolium assays rely on reduction of a dye to a coloured formazan, in cell work by metabolically active cells.
Test [2] deals with HCT-116. Briefly: Cytotoxicity against human HCT-116 cells assessed as inhibition of cell growth incubated for 24 hrs by MTT assay. In kind it is functional, cell-based. To be noted: HCT-116, 24 h.
For test [3], the target named is T1, Tyrosine-protein kinase JAK3 (Homo sapiens, UniProt P52333).
T1 sequence (P52333 whole entry): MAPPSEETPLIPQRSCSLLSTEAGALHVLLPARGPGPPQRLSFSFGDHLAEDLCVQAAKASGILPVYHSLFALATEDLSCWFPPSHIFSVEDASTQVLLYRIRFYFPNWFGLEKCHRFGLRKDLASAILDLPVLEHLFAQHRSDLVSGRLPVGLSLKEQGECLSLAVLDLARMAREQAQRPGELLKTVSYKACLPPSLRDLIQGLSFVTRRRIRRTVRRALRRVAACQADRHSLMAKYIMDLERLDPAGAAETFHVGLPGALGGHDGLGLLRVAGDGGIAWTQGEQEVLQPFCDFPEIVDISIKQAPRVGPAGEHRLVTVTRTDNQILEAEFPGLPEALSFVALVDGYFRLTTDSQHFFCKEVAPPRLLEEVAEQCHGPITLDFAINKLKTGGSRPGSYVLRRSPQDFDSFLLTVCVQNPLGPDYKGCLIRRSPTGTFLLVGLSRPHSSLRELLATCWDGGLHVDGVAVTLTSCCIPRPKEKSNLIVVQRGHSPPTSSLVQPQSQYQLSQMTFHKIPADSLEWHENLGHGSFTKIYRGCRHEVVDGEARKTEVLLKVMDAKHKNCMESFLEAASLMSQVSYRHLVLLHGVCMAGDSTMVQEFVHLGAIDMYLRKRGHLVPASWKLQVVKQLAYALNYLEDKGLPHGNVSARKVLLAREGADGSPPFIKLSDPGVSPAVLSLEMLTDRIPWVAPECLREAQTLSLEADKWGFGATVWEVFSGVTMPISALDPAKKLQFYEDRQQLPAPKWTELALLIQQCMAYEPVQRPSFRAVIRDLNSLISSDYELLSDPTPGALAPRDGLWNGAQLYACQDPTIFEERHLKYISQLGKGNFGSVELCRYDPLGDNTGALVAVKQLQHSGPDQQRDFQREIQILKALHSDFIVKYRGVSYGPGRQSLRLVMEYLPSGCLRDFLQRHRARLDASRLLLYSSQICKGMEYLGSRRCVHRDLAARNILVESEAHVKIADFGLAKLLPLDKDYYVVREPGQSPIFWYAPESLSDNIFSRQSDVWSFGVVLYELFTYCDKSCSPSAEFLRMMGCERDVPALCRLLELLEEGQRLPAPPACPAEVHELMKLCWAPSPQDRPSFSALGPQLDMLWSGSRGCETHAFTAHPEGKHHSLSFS
Description: Inhibition of human JAK3 using MBP as substrate in presence of ATP.

In test [4] the target is Glycogen synthase kinase-3 beta (Homo sapiens, UniProt P49841). Briefly: Inhibition of human GSK3beta using Poly Glut Tyr as substrate in presence of ATP.
Chain of Glycogen synthase kinase-3 beta (P49841 whole entry): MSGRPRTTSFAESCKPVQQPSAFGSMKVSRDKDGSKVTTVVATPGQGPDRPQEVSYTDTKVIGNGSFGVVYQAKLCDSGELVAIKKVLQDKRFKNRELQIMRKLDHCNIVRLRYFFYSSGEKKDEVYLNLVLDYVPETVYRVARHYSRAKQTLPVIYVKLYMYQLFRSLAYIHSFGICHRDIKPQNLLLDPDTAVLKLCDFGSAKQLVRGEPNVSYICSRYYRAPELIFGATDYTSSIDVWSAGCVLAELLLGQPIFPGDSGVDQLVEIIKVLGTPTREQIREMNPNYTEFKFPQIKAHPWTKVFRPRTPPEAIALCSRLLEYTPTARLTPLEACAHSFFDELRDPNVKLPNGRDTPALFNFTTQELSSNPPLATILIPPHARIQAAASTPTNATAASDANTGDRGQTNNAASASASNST
In test [5] the target is Serine/threonine-protein kinase N2 (Homo sapiens, UniProt Q16513). Briefly: Inhibition of human PRK2 using ISDELMDATFADQEAKKK as substrate in presence of ATP.
Chain of Serine/threonine-protein kinase N2 (Q16513 whole entry): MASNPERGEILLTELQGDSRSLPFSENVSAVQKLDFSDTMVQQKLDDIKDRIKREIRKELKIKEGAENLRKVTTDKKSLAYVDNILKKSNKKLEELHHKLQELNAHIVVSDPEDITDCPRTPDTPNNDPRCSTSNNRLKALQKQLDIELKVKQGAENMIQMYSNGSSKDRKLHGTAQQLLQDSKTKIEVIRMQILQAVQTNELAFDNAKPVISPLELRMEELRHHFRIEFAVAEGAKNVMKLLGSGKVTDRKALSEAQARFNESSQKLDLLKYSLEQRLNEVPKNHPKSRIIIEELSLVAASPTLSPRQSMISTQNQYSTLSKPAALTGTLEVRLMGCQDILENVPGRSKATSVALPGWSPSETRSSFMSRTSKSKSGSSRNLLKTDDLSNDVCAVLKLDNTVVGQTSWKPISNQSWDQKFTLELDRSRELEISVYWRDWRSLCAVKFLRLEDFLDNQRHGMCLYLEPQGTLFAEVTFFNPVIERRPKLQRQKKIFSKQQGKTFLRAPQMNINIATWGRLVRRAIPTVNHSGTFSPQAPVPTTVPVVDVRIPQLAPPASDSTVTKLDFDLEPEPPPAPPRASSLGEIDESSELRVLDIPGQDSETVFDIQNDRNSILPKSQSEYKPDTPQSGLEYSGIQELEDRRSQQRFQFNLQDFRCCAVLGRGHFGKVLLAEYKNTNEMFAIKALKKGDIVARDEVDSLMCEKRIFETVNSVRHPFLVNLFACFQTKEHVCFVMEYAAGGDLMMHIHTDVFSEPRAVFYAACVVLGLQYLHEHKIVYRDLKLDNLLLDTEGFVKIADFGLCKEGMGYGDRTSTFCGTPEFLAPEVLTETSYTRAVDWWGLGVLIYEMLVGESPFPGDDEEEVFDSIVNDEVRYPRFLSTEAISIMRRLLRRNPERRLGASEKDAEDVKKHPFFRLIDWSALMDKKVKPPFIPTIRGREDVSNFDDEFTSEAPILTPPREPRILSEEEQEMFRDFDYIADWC
For test [6], the target named is MAP/microtubule affinity-regulating kinase 3 (Homo sapiens, UniProt P27448). Description: Inhibition of human MARK3 using ATPKKLNRTLSVA as substrate in presence of ATP.
Chain of MAP/microtubule affinity-regulating kinase 3 (P27448 whole entry): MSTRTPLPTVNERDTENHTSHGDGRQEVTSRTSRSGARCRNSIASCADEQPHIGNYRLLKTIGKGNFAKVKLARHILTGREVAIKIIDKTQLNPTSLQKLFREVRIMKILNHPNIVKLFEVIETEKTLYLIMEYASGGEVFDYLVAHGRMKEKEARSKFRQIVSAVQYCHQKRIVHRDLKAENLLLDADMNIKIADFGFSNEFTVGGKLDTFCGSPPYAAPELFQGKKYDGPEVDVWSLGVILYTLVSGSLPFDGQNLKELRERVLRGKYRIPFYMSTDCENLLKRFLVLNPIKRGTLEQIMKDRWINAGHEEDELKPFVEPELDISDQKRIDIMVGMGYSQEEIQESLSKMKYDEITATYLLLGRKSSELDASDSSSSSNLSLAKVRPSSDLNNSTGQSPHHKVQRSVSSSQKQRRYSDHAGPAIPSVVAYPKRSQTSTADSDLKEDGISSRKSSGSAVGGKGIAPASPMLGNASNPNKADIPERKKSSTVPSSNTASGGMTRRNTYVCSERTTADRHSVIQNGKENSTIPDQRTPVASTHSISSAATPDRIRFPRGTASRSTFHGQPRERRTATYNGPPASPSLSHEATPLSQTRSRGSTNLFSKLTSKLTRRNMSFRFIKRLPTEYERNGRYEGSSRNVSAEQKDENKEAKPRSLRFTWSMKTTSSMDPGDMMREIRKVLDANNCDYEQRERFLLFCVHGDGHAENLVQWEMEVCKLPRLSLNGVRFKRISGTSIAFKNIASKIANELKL
In test [7] the target is Serine/threonine-protein kinase pim-2 (Homo sapiens, UniProt Q9P1W9). Briefly: Inhibition of PIM-2 (unknown origin).
Chain of Serine/threonine-protein kinase pim-2 (Q9P1W9 whole entry): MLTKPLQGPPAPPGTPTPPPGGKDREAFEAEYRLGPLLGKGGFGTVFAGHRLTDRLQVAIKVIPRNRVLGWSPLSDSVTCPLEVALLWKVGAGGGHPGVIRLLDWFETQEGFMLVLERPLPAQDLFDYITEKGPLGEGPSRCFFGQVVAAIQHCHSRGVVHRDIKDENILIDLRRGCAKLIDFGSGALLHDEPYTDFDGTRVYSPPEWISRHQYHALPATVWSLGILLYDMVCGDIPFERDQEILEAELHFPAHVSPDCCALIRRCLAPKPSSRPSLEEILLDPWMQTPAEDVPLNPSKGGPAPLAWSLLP
Test [8] addresses Serine/threonine-protein kinase pim-1 (Homo sapiens, UniProt P11309).
Description: Inhibition of PIM-1 (unknown origin)
Test [9] addresses 5'-AMP-activated protein kinase catalytic subunit alpha-2 (Homo sapiens, UniProt P54646). Briefly: Inhibition of human AMPK using HMRSAMSGLHLVKRR as substrate in presence of ATP.

Chain of 5'-AMP-activated protein kinase catalytic subunit alpha-2 (P54646 whole entry): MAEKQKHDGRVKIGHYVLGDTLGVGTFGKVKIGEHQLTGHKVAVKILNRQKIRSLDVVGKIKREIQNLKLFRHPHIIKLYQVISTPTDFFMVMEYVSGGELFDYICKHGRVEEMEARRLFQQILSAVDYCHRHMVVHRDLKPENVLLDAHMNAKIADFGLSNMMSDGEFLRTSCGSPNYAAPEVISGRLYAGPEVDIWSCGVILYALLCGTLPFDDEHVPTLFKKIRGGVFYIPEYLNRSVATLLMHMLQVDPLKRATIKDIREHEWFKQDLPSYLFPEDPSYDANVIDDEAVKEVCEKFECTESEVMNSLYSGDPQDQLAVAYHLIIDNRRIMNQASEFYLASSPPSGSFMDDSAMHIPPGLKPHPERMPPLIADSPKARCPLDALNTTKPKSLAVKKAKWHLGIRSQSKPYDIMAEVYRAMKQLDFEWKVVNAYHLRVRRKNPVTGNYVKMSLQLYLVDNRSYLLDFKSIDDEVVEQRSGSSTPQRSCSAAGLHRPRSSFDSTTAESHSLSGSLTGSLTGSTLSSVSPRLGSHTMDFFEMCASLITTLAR
Chain of Serine/threonine-protein kinase pim-1 (P11309 whole entry): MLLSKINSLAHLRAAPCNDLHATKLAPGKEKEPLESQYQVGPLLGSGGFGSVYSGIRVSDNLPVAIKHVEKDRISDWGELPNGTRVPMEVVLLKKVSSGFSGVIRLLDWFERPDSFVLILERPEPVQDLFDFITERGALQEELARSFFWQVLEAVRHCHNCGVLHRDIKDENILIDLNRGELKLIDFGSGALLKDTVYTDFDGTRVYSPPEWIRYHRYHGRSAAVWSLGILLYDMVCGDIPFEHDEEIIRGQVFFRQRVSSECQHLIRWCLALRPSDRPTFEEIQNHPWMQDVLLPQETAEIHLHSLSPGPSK

As to `NCCCCn1c2ccccc2c2c3[nH]ncc3c3c4ccccc4[nH]c3c21`, the negative logarithm of the EC50 (pEC50) in test [1] was 5.57.

As to `CCCCCn1c2ccccc2c2c3[nH]ncc3c3c4ccccc4[nH]c3c21`, the pEC50 in test [1] was 4.82.

Turning to `CCN(CC)CCCn1c2ccccc2c2c3[nH]ncc3c3c4ccccc4[nH]c3c21`, the pEC50 in test [1] was less than 5.40.

Consider `OC[C@H]1O[C@@H](n2c3ccccc3c3c4cn[nH]c4c4c5ccccc5[nH]c4c32)[C@H](O)[C@@H](O)[C@@H]1O`, for which, in test [2], the pIC50 is 4.96.

Take `CCCCn1c2ccccc2c2c3[nH]ncc3c3c4ccccc4[nH]c3c21`: the pEC50 in [1] was less than 5.30.

Regarding `CNCCCn1c2ccccc2c2c3cn[nH]c3c3c4ccccc4[nH]c3c21`, the pIC50 is 7.39 in test [3]; 6.89 in test [4]; 8.05 in test [5]; 7.62 in test [6]; 6.50 in [7]; 7.35 in test [8]. Further, the negative-log IC50 (pIC50) in [9] is 7.84.

Take `CN(C)CCCn1c2ccccc2c2c3[nH]ncc3c3c4ccccc4[nH]c3c21`: in test [1], the pEC50 is 5.42.

For `OCCCCn1c2ccccc2c2c3[nH]ncc3c3c4ccccc4[nH]c3c21`, the negative-log EC50 (pEC50) in test [1] was 5.39.

On to `CCN(CC)CCCCn1c2ccccc2c2c3[nH]ncc3c3c4ccccc4[nH]c3c21`, for which the pEC50 in test [1] was 5.37.

As to `NCCCn1c2ccccc2c2c3[nH]ncc3c3c4ccccc4[nH]c3c21`, in test [1], the pEC50 was less than 4.40.

With `OC[C@H]1O[C@@H](n2c3ccccc3c3c4[nH]ncc4c4c5ccccc5[nH]c4c32)[C@H](O)[C@@H](O)[C@@H]1O`, the pIC50 in [2] is 4.92.

Regarding `CCCCCn1c2ccccc2c2c3cn[nH]c3c3c4ccccc4[nH]c3c21`, in test [1], the pEC50 was less than 5.30.
